We go through 5 molecules from patent publication US8110217B2, “Sphingomyelin liposomes for the treatment of hyperactive bladder disorders” (priority 2001, dated 2012).

The test system of this assay is chemically induced bladder hyperactivity. In words: Cystometrogram (CMG): liposomes of various lipids infused in the presence of KCl after protamine sulfate (Examples 1-4). The class given is in vivo, female Sprague-Dawley rats. The text has this:
Bladder reflex activity in thirty-four (34) female Sprague-Dawley rats (200-250 g) was studied by cystometry performed under anesthesia with urethane (1.2 g/kg) administered by subcutaneous injection. Body temperature was maintained in the physiologic range using a heating lamp. A transurethral bladder catheter (PE-50) connected by a three-way stopcock to a pressure transducer and to a syringe pump was used to record intravesical pressure and to infuse solutions into the bladder. A control cystometrogram (CMG) was performed by slowly filling the bladder with saline at a rate of 0.04 ml/min to elicit repetitive voiding. The bladder contraction frequency of the reflex bladder contractions were recorded. After performing control CMGs with saline infusion for 3 hours, protamine sulfate (PS) (Sigma Chemical; 10 mg/ml) was infused at a rate of 0.04 ml/min for 1 hour to increase epithelial permeability followed by infusion of the irritant KCl (500 mM) for 1 hour. Subsequently, liposomes made from lipids of various compositions then were infused in the presence of a high concentration of KCl for 2 hours.
The effect of charge on the lipid headgroup in reducing bladder activity in three animal groups (n=5) was determined. Neutrally charged liposomes prepared with L-α-PC (a zwitterionic lipid egg PC) were compared against liposomes having either a positively or negatively charged polar headgroup, namely, 1,2-dioleoyl-3-trimethylammonium-propane (DOTAP) and 1-α-phosphatidylserine (POPS), respectively.
Liposomes were prepared as described by Kirby and Gregoriadis (Kirby, C. J. and Gregoriadia, G., “A simple procedure for preparing liposomes capable of high encapsulation efficiency under mild conditions,” Liposome Technology, G. Gregnoriadis, Ed., C.R.C. Press, Inc., Boca Raton, Fla., 1984, Vol. 1, p. 20, 1984). Briefly, liposomes were constructed as a 2:1 molar ratio of L-α-phosphatidylcholine and cholesterol (Sigma Chemical Co., St. Louis, Mo.) to a final lipid concentration of 1-2 mg/ml in saline. Lipids in chloroform were dried down together in the proper ratio under nitrogen. The residues were reconstituted as liposomes in saline or 500 mM KCl by intense sonication. This lipid composition produced liposomes with no net charge.
Statistical analyses were performed using Student's t test for paired or unpaired data, where applicable. A P-value less than 0.05 was considered significant. All data were expressed as means±S.E. (standard error).
Neutrally charged liposomes prepared with sphingomyelin were compared against liposomes prepared from dihydrosphingomyelin and two pure synthetic lipids: 1,2-distearoyl-sn-glycero-3-phosphocholine (DSPC) and 1,-oleoyl-2-stearoyl-sn-glycero-3-phosphocholine (OSPC).
The methodology of this investigation is the same as described above in Example 1 with the exception that the preparation of liposomes was modified from Example 1. Briefly, liposomes were constructed as a 2:1 molar ratio of sphingomyelin and cholesterol (Sigma Chemical Co., St. Louis, Mo.) to a final lipid concentration of 1-2 mg/ml in saline. Lipids in chloroform were dried down together in the proper ratio under nitrogen. The residues were reconstituted as liposomes in saline or 500 mM KCl by intense sonication. This lipid composition produced sphingomyelin liposomes with no net charge.
Sphingomyelin devoid of its phosphorylcholine head group generates the molecule ceramide, a well known lipid second messenger which mediates a wide range of cellular responses to external stimuli, and also is used for the biosynthesis of sphingomyelin and glycosphingolipids. Because ceramide cannot form stable liposomes by itself, its effect on bladder hyperactivity was tested by including it at 1 mol % in an inert lipid, namely, 1,2-distearoyl-sn-glycero-3-phosphocholine (DSPC).
The methodology of this investigation is the same as described above in Example 1 with the exception that the preparation of liposomes was modified from Example 1. […]

Where [1] appears, read: included at 1 mol % in DSPC liposomes.

With “1-alkyl-2-acetoyl-sn-glycero-3-phosphocholine [PAF]”, the “bladder reflex activity” value (instilled alone or included with DSPC liposomes at 1-5 mol %) is recorded as “aggravated the bladder reflex activity”.

Take `CCCCCCCCCCCCC/C=C/[C@@H](O)[C@@H](N)COP(=O)(O)O` [sphingosine 1-phosphate]: the “effect on efficacy of DSPC liposomes in reducing bladder contraction frequency” value was “did not show a similar beneficial effect” under setting [1]; “equally effective as ceramide and sphingosine” (included in DSPC at 1-5 mol % (data not shown)).

In the case of `CCCCCCCCCCCCC/C=C/[C@@H](O)[C@@H](N)CO` [sphingosine], the “effect on efficacy of DSPC liposomes in reducing bladder contraction frequency” value under setting [1] is listed as “had a similar effect”.

Regarding ceramide, the “effect on efficacy of DSPC liposomes in reducing bladder contraction frequency” value under setting [1] is “significantly increased the efficacy of DSPC”.

On to cerebroside, for which the “effect on efficacy of DSPC liposomes in reducing bladder contraction frequency” value (DSPC/cerebroside and cholesterol liposomes) is “significantly increased the efficacy of DSPC”.
